Data reported in patent publication US5753715A, “2-disubstituted cyclohexenyl and cyclohexyl antimicrobial agents” (Ortho Pharmaceutical Corporation, priority 1995, dated 1998).

Target: T1, Kinase A and SpoOF (Bacillus subtilis, UniProt P16497)
T1 sequence (P16497 1-606): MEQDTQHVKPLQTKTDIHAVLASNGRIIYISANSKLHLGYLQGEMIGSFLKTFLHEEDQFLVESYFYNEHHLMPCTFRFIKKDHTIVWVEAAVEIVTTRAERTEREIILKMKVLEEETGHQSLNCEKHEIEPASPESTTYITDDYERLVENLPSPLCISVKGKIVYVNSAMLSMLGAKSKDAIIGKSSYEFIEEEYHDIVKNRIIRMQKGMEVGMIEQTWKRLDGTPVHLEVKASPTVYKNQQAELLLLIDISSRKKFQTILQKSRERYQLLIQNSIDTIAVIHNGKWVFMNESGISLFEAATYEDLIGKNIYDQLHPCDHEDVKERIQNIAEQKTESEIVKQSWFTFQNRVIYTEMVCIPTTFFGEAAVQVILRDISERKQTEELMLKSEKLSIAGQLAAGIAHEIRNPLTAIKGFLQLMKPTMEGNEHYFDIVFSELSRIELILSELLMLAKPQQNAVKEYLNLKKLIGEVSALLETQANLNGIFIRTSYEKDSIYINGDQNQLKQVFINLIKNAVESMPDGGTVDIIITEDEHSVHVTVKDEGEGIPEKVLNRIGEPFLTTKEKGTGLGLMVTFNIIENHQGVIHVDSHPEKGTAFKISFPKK
Assay: Autophosphorylation of Kinase A and Transphosphorylation of SPoOF Assay
Assay type: biochemical
Conditions: inhibition of Kinase A autophosphorylation / SpoOF transphosphorylation, [32P]ATP, gel, phosphoimager

Structure (SMILES) | IC50 [mM] | IC min [mM]
COc1ccc(CC2(CCOc3ccc(CCCNCCN4CCCC4)cc3)C=CCCC2)cc1 (stereo not shown) [Compound 44] | 133 | 62.5
NCCc1ccc(OCCC2(Cc3ccc(Cl)cc3)C=CCCC2)cc1 (stereo not shown) [Compound 33] | 339.5 | 125
OCCNCCCc1ccc(OCCC2(c3ccc(F)cc3)C=CCCC2)cc1 (stereo not shown) [Compound 25] | 200 | 125
CCCNCCCc1ccc(OCCC2(c3ccc(F)cc3)C=CCCC2)cc1 (stereo not shown) [Compound 27] | 318 | 125
NCCc1ccc(OCCC2(Cc3cccc(Cl)c3)C=CCCC2)cc1 (stereo not shown) [Compound 39] | 61.5 | 31.25
CNCCCc1ccc(OCCC2(C(C)C)C=CCCC2)cc1 (stereo not shown) [Compound 35] | 468.4 | 125
NCCc1ccc(OCCC2(Cc3ccccc3)CCCCC2)cc1 [Compound 13] | 39.5 | 7.8
CCCCC1(CCOc2ccc(CCCNC)cc2)C=CCCC1 (stereo not shown) [Compound 32] | 164 | 125
CNCCCc1ccc(OCCC2(CCO)C=CCCC2)cc1 (stereo not shown) [Compound 15] | 432 | 125
NC(=O)c1ccc(OCCC2(Cc3cccc(Cl)c3)C=CCCC2)cc1 (stereo not shown) [Compound 7] | 330 | –
COc1ccc(CC2(CCOc3ccc(C(N)=O)cc3)C=CCCC2)cc1 (stereo not shown) [Compound 51] | – | > 1000

Second part, the compound after the results:

IC50 [mM] | IC min [mM] | Structure (SMILES)
261 | 125 | NCCCc1ccc(OCCC2(Cc3ccccc3)C=CCCC2)cc1 (stereo not shown) [Compound 18]
139 | 62.5 | CNCCCc1ccc(OCCC2(Cc3ccc(OC)cc3)C=CCCC2)cc1 (stereo not shown) [Compound 42]
18.5 | 15.6 | NCc1ccc(OCCC2(Cc3cccc(Cl)c3)C=CCCC2)cc1 (stereo not shown) [Compound 5]
210 | 125 | COc1ccc(CC2(CCOc3ccc(CCCN)cc3)C=CCCC2)cc1 (stereo not shown) [Compound 43]
17.9 | 15.6 | N=C(N)NCCc1ccc(OCCC2(Cc3cccc(Cl)c3)C=CCCC2)cc1 (stereo not shown) [Compound 45]
– | 500 | CNCCc1ccccc1OCCC1(Cc2ccccc2)C=CCCC1 (stereo not shown) [Compound 36]
– | > 1000 | Fc1ccc(C2(CCOc3ccc(CCCNCc4ccccc4)cc3)C=CCCC2)cc1 (stereo not shown) [Compound 28]
174 | – | NCCCc1ccc(OCCC2(Cc3ccc(Cl)cc3)C=CCCC2)cc1 (stereo not shown) [Compound 52]
446 | 250 | COc1cc(CN)ccc1OCCC1(Cc2ccccc2)C=CCCC1 (stereo not shown) [Compound 9]
35.8 | – | N=C(N)NCc1ccc(OCCC2(Cc3cccc(Cl)c3)C=CCCC2)cc1 (stereo not shown) [Compound 6]
122 | – | CN(C)CCCc1ccc(OCCC2(Cc3ccccc3)C=CCCC2)cc1 (stereo not shown) [Compound 20]
107.7 | 62.5 | CNCCc1cccc(OCCC2(Cc3ccccc3)C=CCCC2)c1 (stereo not shown) [Compound 37]
210 | 62.5 | C1=CC(CCOc2ccc(CCNCCN3CCCC3)cc2)(Cc2ccccc2)CCC1 (stereo not shown) [Compound 1]
164.1 | 125 | N=C(N)NCCCc1ccc(OCCC2(Cc3ccccc3)C=CCCC2)cc1 (stereo not shown) [Compound 38]
